The values below come from patent publication US10214490B2, “Picolinamides as fungicides” (Dow AgroSciences LLC, priority 2016, dated 2019).

Assay type in all cases: in vivo
For one assay, the system named is Puccinia triticina. Nature of the assay: Fungicidal activity: wheat brown rust (PUCCRT), disease control on wheat seedlings. The procedure:
Technical grades of materials were dissolved in acetone, which were then mixed with nine volumes of water containing 110 ppm Triton X-100. The fungicide solutions were applied onto wheat seedlings using an automated booth sprayer to run-off. All sprayed plants were allowed to air dry prior to further handling. All fungicides were evaluated using the aforementioned method for their activity vs. all target diseases, unless stated otherwise. Wheat leaf blotch and brown rust activity were also evaluated using track spray applications, in which case the fungicides were formulated as EC formulations, containing 0.1% Trycol 5941 in the spray solutions. Wheat plants (variety Yuma) were grown from seed in a greenhouse in 50% mineral soil/50% soil-less Metro mix until the first leaf was fully emerged, with 7-10 seedlings per pot. These plants were inoculated with an aqueous spore suspension of Puccinia triticina either prior to or after fungicide treatments. After inoculation the plants were kept in a dark dew room at 22° C. with 100% relative humidity overnight to permit spores to germinate and infect the leaf. The plants were then transferred to a greenhouse set at 24° C. for disease to develop. Fungicide formulation, application and disease assessment followed the procedures as described in the Example A. Results of the evaluations are shown below in Table 4.

The next assay has as its system Zymoseptoria tritici. Nature of the assay: Fungicidal activity: leaf blotch of wheat (SEPTTR), disease control on wheat seedlings. Conditions: for pest or weed control at 121.5 g/ha / pest or weed control at 100 ppm: Zymoseptoria tritici. The method, then:
Technical grades of materials were dissolved in acetone, which were then mixed with nine volumes of water containing 110 ppm Triton X-100. The fungicide solutions were applied onto wheat seedlings using an automated booth sprayer to run-off. All sprayed plants were allowed to air dry prior to further handling. All fungicides were evaluated using the aforementioned method for their activity vs. all target diseases, unless stated otherwise. Wheat leaf blotch and brown rust activity were also evaluated using track spray applications, in which case the fungicides were formulated as EC formulations, containing 0.1% Trycol 5941 in the spray solutions. Wheat plants (variety Yuma) were grown from seed in a greenhouse in 50% mineral soil/50% soil-less Metro mix until the first leaf was fully emerged, with 7-10 seedlings per pot. These plants were inoculated with an aqueous spore suspension of Zymoseptoria tritici either prior to or after fungicide treatments. After inoculation the plants were kept in 100% relative humidity (one day in a dark dew chamber followed by two to three days in a lighted dew chamber at 20° C.) to permit spores to germinate and infect the leaf. The plants were then transferred to a greenhouse set at 20° C. for disease to develop. When disease symptoms were fully expressed on the 1st leaves of untreated plants, infection levels were assessed on a scale of 0 to 100 percent disease severity. Percent disease control was calculated using the ratio of disease severity on treated plants relative to untreated plants.

Another assay concerns Phakopsora pachyrhizi. The assay is described as follows: Fungicidal activity: Asian soybean rust (PHAKPA), disease control on soybean seedlings. As to conditions: High Volume at 25 ppm. The method, then:
Technical grades of materials were dissolved in acetone, which were then mixed with nine volumes of water containing 0.011% Tween 20. The fungicide solutions were applied onto soybean seedlings using an automated booth sprayer to run-off. All sprayed plants were allowed to air dry prior to further handling.
Soybean plants (variety Williams 82) were grown in soil-less Metro mix, with one plant per pot. Two weeks old seedlings were used for testing. Plants were inoculated either 3 days prior to or 1 day after fungicide treatments. Plants were incubated for 24 h in a dark dew room at 22° C. and 100% relative humidity then transferred to a growth room at 23° C. for disease to develop. Disease severity was assessed on the sprayed leaves.

The mark [1] stands for this setting: Puccinia triticina, 24 h, LV activity at 121.5 g/H, 1 Day Protectant, read-out: PUCCRT 1DP disease control rating.
Setting [2] is: 24 h, LV activity at 121.5 g/H, 1 Day Protectant, read-out: SEPTTR 1DP disease control rating.
[3] abbreviates: 72 h, LV activity at 121.5 g/H, 3 Day Curative, read-out: SEPTTR 3DC disease control rating.
Where [4] appears, read: HV activity at 100 ppm, 1 Day Protectant.
Where [5] appears, read: HV activity at 100 ppm, 3 Day Curative.
Where [6] appears, read: Puccinia triticina, 72 h, LV activity at 121.5 g/H, 3 Day Curative, read-out: PUCCRT 3DC disease control rating.
[7] abbreviates: 24 h, 1 Day Protectant, read-out: PHAKPA 1DP disease control rating.
[8] abbreviates: 72 h, 3 Day Curative, read-out: PHAKPA 3DC disease control rating.
Where [9] appears, read: LV activity at 121.5 g/H, 3 Day Curative.

Like-named read-outs stand apart in the source and are kept apart here.

As to `COc1cc(F)ccc1[C@@H](Sc1ccccc1)[C@H](C)OC(=O)[C@H](C)NC(=O)c1nccc(OC)c1OC(C)=O` [Compound 59], the pest or weed control at 121.5 g/ha in the assay with Puccinia triticina (setting [1]) is above 80%; in the assay on Zymoseptoria tritici (setting [2]) it was at most 80%; with Zymoseptoria tritici (setting [3]) it was at most 80%.
For `COc1cc(F)ccc1[C@@H](Sc1ccccc1)[C@H](C)OC(=O)[C@H](C)NC(=O)c1nccc(OC)c1O` [Compound 57], the “PUCCRT 1DP disease control rating” value in the assay with Puccinia triticina (setting [4]) is given as “A (>80)”. In addition, the “PUCCRT 3DC disease control rating” value with Puccinia triticina (setting [5]) is “D (≤0)”. In addition, the “SEPTTR 1DP disease control rating” value in the assay on Zymoseptoria tritici (setting [4]) is on record as “B (≤80)”. Also, in the assay with Zymoseptoria tritici (setting [5]), the “SEPTTR 3DC disease control rating” value is recorded as “A (>80)”.
`COc1ccnc(C(=O)N[C@@H](C)C(=O)O[C@@H](C)[C@@H](c2ccccc2)S(=O)(=O)c2ccc(C)cc2)c1OC(C)=O` [Compound 66]: the pest or weed control at 121.5 g/ha in the assay with Puccinia triticina (setting [1]) is at most 80%; with Puccinia triticina (setting [6]), at most 80%; with Zymoseptoria tritici (setting [2]) it was above 80%; with Zymoseptoria tritici (setting [3]), at most 80%. In addition, the pest or weed control at 25 ppm in the assay with Phakopsora pachyrhizi (setting [7]) and with Phakopsora pachyrhizi (setting [8]) was at most 80% throughout.
In the case of `COc1ccnc(C(=O)N[C@@H](C)C(=O)O[C@@H](C)[C@H](Sc2ccccc2)c2ccc(F)cc2)c1OC(C)=O` [Compound 85], the pest or weed control at 121.5 g/ha with Puccinia triticina (setting [6]) was at most 0%. Also, the results for the pest or weed control at 25 ppm in the assay on Phakopsora pachyrhizi (setting [7]) and in the assay with Phakopsora pachyrhizi (setting [8]) were at most 80% and at most 0%, respectively. In the assay with Zymoseptoria tritici (LV activity at 121.5 g/H, 1 Day Protectant), the “SEPTTR 1DP disease control rating” value was “B (≤80)”. For the same molecule, the “SEPTTR 3DC disease control rating” value in the assay on Zymoseptoria tritici (setting [9]) is listed as “D (≤0)”.
Turning to `COc1ccnc(C(=O)N[C@@H](C)C(=O)O[C@@H](C)[C@H](Sc2ccc(F)cc2C)c2ccccc2)c1OC(C)=O` [Compound 83], the pest or weed control at 121.5 g/ha with Puccinia triticina (setting [6]) was at most 0%; with Zymoseptoria tritici (setting [2]), at most 80%. The “SEPTTR 3DC disease control rating” value in the assay with Zymoseptoria tritici (setting [9]) is “D (≤0)”.
`COc1cc(F)ccc1[C@@H](Sc1ccccc1)[C@H](C)OC(=O)[C@H](C)NC(=O)c1nccc(OC)c1OC(C)=O` [Compound 84]: in the assay on Puccinia triticina (setting [9]), the “PUCCRT 3DC disease control rating” value is listed as “B (≤80)”.
As to `COc1ccnc(C(=O)N[C@@H](C)C(=O)O[C@@H](C)[C@H](Sc2ccccc2)c2ccccc2)c1OC(=O)OC(C)=O` [Compound 80], the pest or weed control at 121.5 g/ha was above 80% in the assay with Puccinia triticina (setting [1]), at most 80% in the assay with Puccinia triticina (setting [6]), at most 80% with Zymoseptoria tritici (setting [2]) and at most 80% in the assay on Zymoseptoria tritici (setting [3]). Also, the pest or weed control at 25 ppm with Phakopsora pachyrhizi (setting [7]) and in the assay on Phakopsora pachyrhizi (setting [8]) was at most 80% each time.
Consider `COc1cc(F)ccc1[C@@H](Sc1ccccc1)[C@H](C)OC(=O)[C@H](C)NC(=O)c1nccc(OC)c1O` [Compound 40], for which the “PUCCRT 3DC disease control rating” value in the assay with Puccinia triticina (setting [5]) is recorded as “A (>80)”. In addition, the pest or weed control at 100 ppm in the assay on Puccinia triticina (Puccinia triticina, 24 h, HV activity at 100 ppm, 1 Day Protectant, read-out: PUCCRT 1DP disease control rating) is above 80%; in the assay with Zymoseptoria tritici (24 h, HV activity at 100 ppm, 1 Day Protectant, read-out: SEPTTR 1DP disease control rating), above 80%; in the assay with Zymoseptoria tritici (72 h, HV activity at 100 ppm, 3 Day Curative, read-out: SEPTTR 3DC disease control rating) it was above 80%.
Take `COc1ccnc(C(=O)N[C@@H](C)C(=O)O[C@@H](C)[C@H](Sc2ccccc2)c2ccccc2)c1OC(=O)OC(=O)C(C)C` [Compound 79]: the pest or weed control at 121.5 g/ha in the assay on Puccinia triticina (setting [1]) is above 80%; in the assay on Puccinia triticina (setting [6]), at most 80%; in the assay with Zymoseptoria tritici (setting [2]), above 80%; with Zymoseptoria tritici (setting [3]), above 80%. Besides, the pest or weed control at 25 ppm in the assay on Phakopsora pachyrhizi (setting [7]) and in the assay on Phakopsora pachyrhizi (setting [8]) was at most 80% throughout.
`COc1ccnc(C(=O)N[C@@H](C)C(=O)O[C@@H](C)[C@@H](c2ccccc2)S(=O)(=O)c2ccc(C(F)(F)F)cn2)c1OC(C)=O` [Compound 71]: the pest or weed control at 121.5 g/ha with Puccinia triticina (setting [1]) is at most 0%; in the assay with Puccinia triticina (setting [6]) it was at most 80%; with Zymoseptoria tritici (setting [2]), at most 80%; in the assay with Zymoseptoria tritici (setting [3]) it was at most 80%. For the same molecule, the pest or weed control at 25 ppm with Phakopsora pachyrhizi (setting [7]) and in the assay with Phakopsora pachyrhizi (setting [8]) was at most 80% each time.
